The test system of test [1] is Mz-sensitive (MzS) G. lamblia strain 713. The test can be described thus: Giardia 48 h growth and survival assay (ATP read-out), Mz-sensitive line. The class given is cell-based, Giardia lamblia. The settings on record: Giardia duodenalis; sensitive 713 line (MzS cells).
The subject of test [2] is Mz-resistant (MzR) G. lamblia 713 line. The experiment in a line: microbe, parasite or virus in culture. The class given is cell-based, Giardia lamblia.
In another test the test system is G. lamblia GS/M. The test can be described thus: Murine Giardia infection model. The class given is in vivo, C57BL/6 mice. The settings on record: single oral dose, data not shown.
The subject of another test is Giardia. The settings on record: cited from earlier work.
Where [3] appears, read: regimen not stated or depending on dosing regimens.

Each structure is given as a SMILES string. Read-outs that look alike come from different tables or passages of the source.

The values below come from patent publication US20160244435A1, “EXPANDED THERAPEUTIC POTENTIAL IN NITROHETEROARYL ANTIMICROBIALS” (The Regents of the University of California, priority 2013, published 2016).

With `Cc1ncc([N+](=O)[O-])n1CCO` [Mz, metronidazole], the figures for the EC50 in test [1] and in test [2] (Giardia duodenalis) were 2 µM and 50 µM, respectively. Besides, the “residual activity in MzR compared to MzS cells, 100%×(EC50 in MzS/EC50 in MzR)” value in test [2] (713 syngeneic pair) turned out to be 4%. Further, the “lowest single dose that eradicates giardiasis in at least half of infected mice” value with G. lamblia GS/M came to 100 mg/kg. Moreover, in the test with Giardia (single-dose treatment), the efficacy is 20-60%. Further, in the test with Giardia (three daily 250 mg oral doses for 5-10 days), the “efficacy (cases in which effective)” value is 80-95%.
As for `CCCSc1ccc2nc(NC(=O)OC)[nH]c2c1` [albendazole], the efficacy in the test on Giardia (setting [3]) is recorded as 25-90%.
For `O=C1OCCN1/N=C/c1ccc([N+](=O)[O-])o1` [furazolidone], the efficacy in the test with Giardia (setting [3]) is recorded as 80-85%.
For the compound `CC(=O)Oc1ccccc1C(=O)Nc1ncc([N+](=O)[O-])s1` [nitazoxanide], in the test on Giardia (two daily 500 mg doses for three days), the efficacy was 70-80%.
As for `CCN(CC)CCCC(C)Nc1c2ccc(Cl)cc2nc2ccc(OC)cc12` (stereo not shown) [quinacrine], in the test with Giardia (setting [3]), the efficacy entry is reported as “up to 90%”.

In general, EC50 refers to the concentration giving half of the maximal effect.
